Test results as given in PubChem BioAssay AID1259407 (Chemical Carcinogenesis Research Information System (CCRIS), 2018).
Active and inactive are the calls of the source. The rule behind the calls is not given here.

Test system: CCRIS mutagenicity, Ames/micronucleus/aberration tests
Experiment: CCRIS mutagenicity studies
[1] = Test System: AMES SALMONELLA TYPHIMURIUM, Strain/Indicator: TA1535, Metabolic Activation: NONE, Method: PREINCUBATION
[2] = Test System: AMES SALMONELLA TYPHIMURIUM, Strain/Indicator: TA1537, Metabolic Activation: NONE, Method: PREINCUBATION

Which results are given for `N[C@@H](CCC(=O)NNc1ccc(CO)cc1)C(=O)O`?
mutagenic call (Test System: AMES SALMONELLA TYPHIMURIUM, Strain/Indicator: TA97, Metabolic Activation: NONE): active; positive; mutagenic call (Test System: AMES SALMONELLA TYPHIMURIUM, Strain/Indicator: TA98, Metabolic Activation: NONE): inactive; negative; mutagenic call (Test System: AMES SALMONELLA TYPHIMURIUM, Strain/Indicator: TA100, Metabolic Activation: NONE): inactive; negative; mutagenic call (Test System: AMES SALMONELLA TYPHIMURIUM, Strain/Indicator: TA102, Metabolic Activation: NONE): inactive; negative; mutagenic call (Test System: AMES SALMONELLA TYPHIMURIUM, Strain/Indicator: TA104, Metabolic Activation: MUSHROOM TYROSINASE, Method: PREINCUBATION): inactive; negative; mutagenic call (Test System: AMES SALMONELLA TYPHIMURIUM, Strain/Indicator: TA104, Metabolic Activation: NONE): active; positive; mutagenic call (Test System: AMES SALMONELLA TYPHIMURIUM, Strain/Indicator: TA104, Metabolic Activation: NONE, Method: PREINCUBATION): inactive; negative; mutagenic call (Test System: AMES SALMONELLA TYPHIMURIUM, Strain/Indicator: TA104, Metabolic Activation: RAT, KIDNEY, HOMOGENATE, REDUCED GLUTATHIONE, Method: PREINCUBATION): active; positive; mutagenic call (Test System: AMES SALMONELLA TYPHIMURIUM, Strain/Indicator: TA104, Metabolic Activation: RAT, KIDNEY, HOMOGENATE, Method: PREINCUBATION): active; positive; mutagenic call (Test System: AMES SALMONELLA TYPHIMURIUM, Strain/Indicator: TA104, Metabolic Activation: RAT, LIVER, CYTOSOL, AROCLOR 1254, NADPH, Method: PREINCUBATION): active; positive; mutagenic call (Test System: AMES SALMONELLA TYPHIMURIUM, Strain/Indicator: TA104, Metabolic Activation: RAT, LIVER, CYTOSOLIC FRACTION, AROCLOR 1254 (10%)): active; positive; mutagenic call (Test System: AMES SALMONELLA TYPHIMURIUM, Strain/Indicator: TA104, Metabolic Activation: RAT, LIVER, MICROSOMES, AROCLOR 1254, Method: PREINCUBATION): inactive; negative; mutagenic call (Test System: AMES SALMONELLA TYPHIMURIUM, Strain/Indicator: TA104, Metabolic Activation: RAT, LIVER, MICROSOMES, AROCLOR 1254 AND RAT, KIDNEY, HOMOGENATE, Method: PREINCUBATION): active; positive; mutagenic call (Test System: AMES SALMONELLA TYPHIMURIUM, Strain/Indicator: TA1535, Metabolic Activation: NONE): inactive; negative; mutagenic call [1]: inactive; negative; mutagenic call (Test System: AMES SALMONELLA TYPHIMURIUM, Strain/Indicator: TA1535, Metabolic Activation: RAT, LIVER, S-9, AROCLOR 1254, Method: PREINCUBATION): inactive; negative; mutagenic call (Test System: AMES SALMONELLA TYPHIMURIUM, Strain/Indicator: TA1537, Metabolic Activation: NONE): active; positive; mutagenic call [2]: inactive; negative; mutagenic call (Test System: AMES SALMONELLA TYPHIMURIUM, Strain/Indicator: TA1537, Metabolic Activation: RAT, LIVER, S-9, AROCLOR 1254, Method: PREINCUBATION): inactive; negative; mutagenic call (Test System: AMES SALMONELLA TYPHIMURIUM, Strain/Indicator: TA1538, Metabolic Activation: NONE): inactive; negative

For `COC(=O)c1ccc(C)cc1`, which mutagenic call (Test System: AMES SALMONELLA TYPHIMURIUM, Strain/Indicator: TA97, Metabolic Activation: HAMSTER, LIVER, S-9, AROCLOR 1254 (10%), Method: PREINCUBATION) is on record?
The mutagenic call was “inactive; negative”.

What about the mutagenic call (Test System: AMES SALMONELLA TYPHIMURIUM, Strain/Indicator: TA97, Metabolic Activation: HAMSTER, LIVER, S-9, AROCLOR 1254 (30%), Method: PREINCUBATION) of the same molecule?
Its mutagenic call is “inactive; negative”.

And the mutagenic call (Test System: AMES SALMONELLA TYPHIMURIUM, Strain/Indicator: TA97, Metabolic Activation: NONE, Method: PREINCUBATION)?
The mutagenic call was “inactive; negative”.

What about the mutagenic call (Test System: AMES SALMONELLA TYPHIMURIUM, Strain/Indicator: TA97, Metabolic Activation: RAT, LIVER, S-9, AROCLOR 1254 (10%), Method: PREINCUBATION) of the same molecule?
Its mutagenic call is “inactive; negative”.

And the mutagenic call (Test System: AMES SALMONELLA TYPHIMURIUM, Strain/Indicator: TA97, Metabolic Activation: RAT, LIVER, S-9, AROCLOR 1254 (30%), Method: PREINCUBATION)?
Its mutagenic call is “inactive; negative”.

What about the mutagenic call (Test System: AMES SALMONELLA TYPHIMURIUM, Strain/Indicator: TA98, Metabolic Activation: HAMSTER, LIVER, S-9, AROCLOR 1254 (10%), Method: PREINCUBATION) of the same molecule?
The mutagenic call was “inactive; negative”.

What about the mutagenic call (Test System: AMES SALMONELLA TYPHIMURIUM, Strain/Indicator: TA98, Metabolic Activation: HAMSTER, LIVER, S-9, AROCLOR 1254 (30%), Method: PREINCUBATION) of the same molecule?
Its mutagenic call is “inactive; negative”.

And the mutagenic call (Test System: AMES SALMONELLA TYPHIMURIUM, Strain/Indicator: TA98, Metabolic Activation: NONE, Method: PREINCUBATION)?
Its mutagenic call is “inactive; negative”.

What about the mutagenic call (Test System: AMES SALMONELLA TYPHIMURIUM, Strain/Indicator: TA98, Metabolic Activation: RAT, LIVER, S-9, AROCLOR 1254 (10%), Method: PREINCUBATION) of the same molecule?
Its mutagenic call is “inactive; negative”.

And the mutagenic call (Test System: AMES SALMONELLA TYPHIMURIUM, Strain/Indicator: TA98, Metabolic Activation: RAT, LIVER, S-9, AROCLOR 1254 (30%), Method: PREINCUBATION)?
Its mutagenic call is “inactive; negative”.

And the mutagenic call (Test System: AMES SALMONELLA TYPHIMURIUM, Strain/Indicator: TA100, Metabolic Activation: HAMSTER, LIVER, S-9, AROCLOR 1254 (10%), Method: PREINCUBATION)?
The mutagenic call was “inactive; negative”.

And the mutagenic call (Test System: AMES SALMONELLA TYPHIMURIUM, Strain/Indicator: TA100, Metabolic Activation: HAMSTER, LIVER, S-9, AROCLOR 1254 (30%), Method: PREINCUBATION)?
Its mutagenic call is “inactive; negative”.

And the mutagenic call (Test System: AMES SALMONELLA TYPHIMURIUM, Strain/Indicator: TA100, Metabolic Activation: NONE, Method: PREINCUBATION)?
Its mutagenic call is “inactive; negative”.

And the mutagenic call (Test System: AMES SALMONELLA TYPHIMURIUM, Strain/Indicator: TA100, Metabolic Activation: RAT, LIVER, S-9, AROCLOR 1254 (10%), Method: PREINCUBATION)?
Its mutagenic call is “inactive; negative”.

What about the mutagenic call (Test System: AMES SALMONELLA TYPHIMURIUM, Strain/Indicator: TA100, Metabolic Activation: RAT, LIVER, S-9, AROCLOR 1254 (30%), Method: PREINCUBATION) of the same molecule?
Its mutagenic call is “inactive; negative”.

What about the mutagenic call (Test System: AMES SALMONELLA TYPHIMURIUM, Strain/Indicator: TA1535, Metabolic Activation: HAMSTER, LIVER, S-9, AROCLOR 1254 (10%), Method: PREINCUBATION) of the same molecule?
Its mutagenic call is “inactive; negative”.

What about the mutagenic call (Test System: AMES SALMONELLA TYPHIMURIUM, Strain/Indicator: TA1535, Metabolic Activation: HAMSTER, LIVER, S-9, AROCLOR 1254 (30%), Method: PREINCUBATION) of the same molecule?
The mutagenic call was “inactive; negative”.

And the mutagenic call [1]?
Its mutagenic call is “inactive; negative”.

And the mutagenic call (Test System: AMES SALMONELLA TYPHIMURIUM, Strain/Indicator: TA1535, Metabolic Activation: RAT, LIVER, S-9, AROCLOR 1254 (10%), Method: PREINCUBATION)?
Its mutagenic call is “inactive; negative”.

And the mutagenic call (Test System: AMES SALMONELLA TYPHIMURIUM, Strain/Indicator: TA1535, Metabolic Activation: RAT, LIVER, S-9, AROCLOR 1254 (30%), Method: PREINCUBATION)?
The mutagenic call was “inactive; negative”.

What about the mutagenic call (Test System: AMES SALMONELLA TYPHIMURIUM, Strain/Indicator: TA1537, Metabolic Activation: HAMSTER, LIVER, S-9, AROCLOR 1254 (30%), Method: PREINCUBATION) of the same molecule?
Its mutagenic call is “inactive; negative”.

And the mutagenic call [2]?
Its mutagenic call is “inactive; negative”.

And the mutagenic call (Test System: AMES SALMONELLA TYPHIMURIUM, Strain/Indicator: TA1537, Metabolic Activation: RAT, LIVER, S-9, AROCLOR 1254 (30%), Method: PREINCUBATION)?
Its mutagenic call is “inactive; negative”.

Which results are given for `ONc1ccc2c(c1)Cc1ccccc1-2`?
mutagenic call (Test System: AMES SALMONELLA TYPHIMURIUM, Strain/Indicator: TA98, Metabolic Activation: NONE, Method: STANDARD PLATE): active; positive; mutagenic call (Test System: AMES SALMONELLA TYPHIMURIUM, Strain/Indicator: TA98, Metabolic Activation: RAT, LIVER, S-9, AROCLOR 1254, Method: STANDARD PLATE): active; positive; mutagenic call (Test System: AMES SALMONELLA TYPHIMURIUM, Strain/Indicator: TA98, Metabolic Activation: S-9, Method: STANDARD PLATE): active; positive; mutagenic call (Test System: AMES SALMONELLA TYPHIMURIUM, Strain/Indicator: TA100, Metabolic Activation: NONE, Method: STANDARD PLATE): active; positive; mutagenic call (Test System: AMES SALMONELLA TYPHIMURIUM, Strain/Indicator: TA100, Metabolic Activation: S-9, Method: STANDARD PLATE): active; positive; mutagenic call (Test System: AMES SALMONELLA TYPHIMURIUM, Strain/Indicator: TA1538, Metabolic Activation: NONE, Method: STANDARD PLATE): active; positive; mutagenic call (Test System: AMES SALMONELLA TYPHIMURIUM, Strain/Indicator: YG1020, Metabolic Activation: NONE, Method: PREINCUBATION): active; positive; mutagenic call (Test System: AMES SALMONELLA TYPHIMURIUM, Strain/Indicator: YG1024, Metabolic Activation: NONE, Method: PREINCUBATION): active; positive; mutagenic call (Test System: AMES SALMONELLA TYPHIMURIUM, Strain/Indicator: YG1025, Metabolic Activation: NONE, Method: PREINCUBATION): active; positive; mutagenic call (Test System: AMES SALMONELLA TYPHIMURIUM, Strain/Indicator: YG1029, Metabolic Activation: NONE, Method: PREINCUBATION): active; positive; mutagenic call (Test System: CHINESE HAMSTER OVARY, Strain/Indicator: CHO-K1-BH4 (HGPRT), Metabolic Activation: NONE, Method: SUSPENSION): active; positive; mutagenic call (Test System: E. COLI, Strain/Indicator: WP2, Metabolic Activation: NONE, Method: PREINCUBATION): active; positive; mutagenic call (Test System: E. COLI, Strain/Indicator: WP2 UVRA, Metabolic Activation: NONE, Method: PREINCUBATION): active; positive
